Experiment [1] has as its system recombinant mouse FEM1B. More on the design: method as in Henning et al., [2022]. The note with it: TAMARA‐FNIP1 degron, ref Henning et al., [2022], read-out: 50% inhibitory concentration (IC50); cited from earlier work.
For experiment [2], the system named is FEM1B. Also on record: method as in Henning et al., [2022]. The settings on record: ref Henning et al., [2022]; cited from earlier work.
The target of experiment [3] is FEM1B‐12 (Homo sapiens, UniProt Q9UK73). The experiment in a line: NMR titration (1H-13C-methyl SOFAST HMQC) of fragments. The format is binding. The note with it: for Kd: fragment 0.0625–2 mM, 100 μM 13C-methyl labeled FEM1B‐12, 310 K, Hill's equation model, read-out: Kd (dissociation constant by NMR titration); for higher affinity than the reference molecule VU0417412: ratio of KD values vs VU0417412. On the procedure:
Using ^1H‐^13C‐methyl SOFAST HMQC NMR, 4608 structurally diverse fragments were prepared as 12‐fragment mixtures at the concentration of 800 μM per compound and screened against 100 μM FEM1B‐12. The spectra of FEM1B in the presence of the fragment mixtures were compared to the spectrum of ligand‐free FEM1B to identify fragment hits. Twelve‐fragment mixture hits were subsequently deconvoluted by testing individual fragments for binding. In total, 18 fragment hits were identified ([…]) in the screen. Three chemical shift patterns were observed among the 18 fragment hits (Figure 2), with pattern three having two sub‐patterns with the same residues shifting in different directions. […] The dissociation constants of the fragments were determined by NMR titration using fragment concentrations ranging from 0.0625 to 2 mM (Figure 2) (Henning et al., [2022]).
All ^15N‐TROSY NMR experiments were carried out at 310 K using a 900 MHz Bruker Avance III spectrometer equipped with a TXI/TCI CryoProbe and a Bruker SampleJet. All 1H‐13C‐SOFAST HMQC NMR experiments were carried out at 310 K using a 600 MHz Bruker AV‐III‐600 Spectrometer with a TCI CryoProbe and a Bruker SampleJet. Two‐dimensional ^1H‐^15 TROSY spectra of 150 μM FEM1B‐12 and ^1H‐^13C‐SOFAST HMQC spectra of 100 μM FEM1B‐12 were recorded using 30‐min acquisition times and analyzed using Topspin 4.1.4 (Bruker).
HMQC titration experiments were used to determine binding affinity of the fragment hits identified from the screen. The changes in ^1H‐^13C chemical shifts of selectively labeled sidechain resonances upon the addition of increasing concentrations of the fragments (0.0625–2 mM) were analyzed. The binding affinities (KDs) of the fragments were calculated using the Hill's equation model in Prism 10 (GraphPad).

For experiment [4], the system named is FEM1B. The experiment in a line: LC-coupled tandem mass spectrometry, site of covalent attachment. Format: binding. The settings on record: FEM1B incubated with five times the concentration of compound for 48 h, trypsin digest, LC-MS/MS. The protocol: To assess the potential for covalent binding of VU0416476 to FEM1B, we used LC‐coupled tandem mass spectrometry to identify the site of covalent attachment. After FEM1B was incubated with five times the concentration of VU0416476 for 48 h, the protein was digested with sequencing‐grade trypsin, and peptides were analyzed by LC‐MS/MS.
FEM1B incubated with five times the concentration of VU0416476 were brought to a final concentration of 5% SDS, reduced with 20 mM DTT at 55°C for 20 min, and alkylated with 40 mM iodoacetamide for 30 min in the dark at room temperature. The samples were then prepared for digestion on S‐Trap™ micro spin columns (ProtiFi) following the manufacturer's instructions. Aqueous phosphoric acid was added to a final concentration of 2.5%, followed by the addition of 90% methanol containing 100 mM TEAB (S‐Trap binding/wash buffer) at 6× the volume. Samples were loaded onto S‐Trap columns and centrifuged at 4000g. Columns were washed four times with binding/wash buffer. […] Eluted peptides were dried in a speed‐vac concentrator, reconstituted in aqueous 0.2% formic acid, and analyzed by LC‐coupled tandem mass spectrometry (LC–MS/MS) using similar methods to those described in the work of Howard et al. ([2024]). […] Peptides were eluted at a flow rate of 350 nL/min, using a 90‐min gradient, and were analyzed on an Orbitrap Exploris 480 mass spectrometer (Thermo Scientific). […]

FEM1B‐12, sequence (Q9UK73 1-356): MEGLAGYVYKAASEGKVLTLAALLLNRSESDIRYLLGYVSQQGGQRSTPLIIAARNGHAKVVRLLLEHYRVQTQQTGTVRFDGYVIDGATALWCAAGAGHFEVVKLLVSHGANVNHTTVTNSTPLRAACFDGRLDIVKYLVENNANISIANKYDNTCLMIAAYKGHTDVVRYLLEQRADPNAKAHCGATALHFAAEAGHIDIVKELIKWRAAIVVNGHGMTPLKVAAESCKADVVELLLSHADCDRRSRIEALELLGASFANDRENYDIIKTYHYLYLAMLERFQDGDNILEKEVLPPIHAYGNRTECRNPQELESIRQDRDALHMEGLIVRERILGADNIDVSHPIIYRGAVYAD

With `N#CCCN(C(=O)CCl)c1ccc2c(c1)OCCO2` [EN106], the IC50 in experiment [1] is 2.2 µM. Moreover, the “site of covalent binding” value in experiment [2] is “covalently bind to Cys186”. On to `CC(=O)c1cccc(NC(=O)c2cccs2)c1` [VU0013947], for which, in experiment [3], the Kd came out at 80 µM and the “higher affinity than the reference molecule VU0417412” value amounted to 3.5 ×. As to `CC(C)(C)N1C(=O)c2ccc(C(=O)O)cc2C1=O` [VU0023775], in experiment [3], the Kd stood at 960 µM.

As for `O=C(O)c1cccc(N2CCCC2=O)c1` [VU0081201], in experiment [3], the Kd turned out to be 1130 µM. `COCc1ccc(NC(=O)c2cccs2)cc1` [VU0175318]: in experiment [3], the Kd was determined as 100 µM and the “higher affinity than the reference molecule VU0417412” value worked out at 2.8 ×. As for `CC(C)c1ccc(NC(=O)c2cnccn2)cc1` [VU0412674], the Kd in experiment [3] amounted to 260 µM. Turning to `CC(C)(C)n1ncc(Cl)c(Cl)c1=O` [VU0416476], the “site of covalent attachment” value in experiment [4] is on record as “covalently binds to Cys186”.

In the case of `O=C(Nc1ccc(F)cc1)c1cccs1` [VU0417412], in experiment [3], the Kd was 280 µM.

The values are drawn from publication PMC12612594, “Nuclear Magnetic Resonance‐based fragment screen of the E3 ligase Fem‐1 homolog B” (Protein Science : A Publication of the Protein Society, 2025).
